The source made the active and inactive calls. For most assays here, no stated cut-off is given here; in the data, actives have a measured EC50 and inactives only a lower limit.
Tests used:
[1] = target: T1, Protein skinhead-1 (Caenorhabditis elegans, UniProt P34707); format: functional
T1 sequence (P34707 whole entry): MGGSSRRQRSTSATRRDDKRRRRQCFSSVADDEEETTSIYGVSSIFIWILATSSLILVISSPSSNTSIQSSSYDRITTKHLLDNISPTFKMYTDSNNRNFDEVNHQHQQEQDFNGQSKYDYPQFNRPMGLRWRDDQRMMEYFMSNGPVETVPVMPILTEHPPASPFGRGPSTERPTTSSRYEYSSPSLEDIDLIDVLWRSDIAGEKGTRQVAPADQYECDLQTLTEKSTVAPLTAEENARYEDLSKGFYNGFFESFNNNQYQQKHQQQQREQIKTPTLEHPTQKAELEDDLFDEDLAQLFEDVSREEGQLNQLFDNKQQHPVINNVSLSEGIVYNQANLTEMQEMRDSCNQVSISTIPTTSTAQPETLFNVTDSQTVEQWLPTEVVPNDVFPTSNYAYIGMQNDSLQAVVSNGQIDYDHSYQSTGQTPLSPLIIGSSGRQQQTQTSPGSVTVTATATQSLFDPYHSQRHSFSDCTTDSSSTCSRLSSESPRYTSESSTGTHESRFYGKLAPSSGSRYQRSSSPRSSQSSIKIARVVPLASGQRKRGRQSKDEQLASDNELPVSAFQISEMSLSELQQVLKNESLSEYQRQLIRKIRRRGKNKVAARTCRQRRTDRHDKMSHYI

[2] = target: FAD-linked sulfhydryl oxidase ALR (Homo sapiens, UniProt P55789); assay: ALR-catalysed DTT oxidation blockers – biochemical, H2O2 detection, luminescence, cherry-pick, dose response (AID 493248)
Chain of FAD-linked sulfhydryl oxidase ALR (P55789 whole entry): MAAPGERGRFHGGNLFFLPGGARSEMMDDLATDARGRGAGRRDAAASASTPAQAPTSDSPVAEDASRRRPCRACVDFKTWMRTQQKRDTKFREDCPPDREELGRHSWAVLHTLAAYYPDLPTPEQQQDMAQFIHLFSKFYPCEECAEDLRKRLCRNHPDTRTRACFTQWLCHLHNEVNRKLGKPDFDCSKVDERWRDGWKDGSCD

[3] = target: T2, Corticotropin-releasing factor receptor 2/Corticotropin-releasing factor-binding protein (Homo sapiens, UniProt P24387+Q13324); assay: Dose Response confirmation of uHTS hits for small molecule antagonists of the CRF-binding protein and CRF-R2 receptor complex.; format: functional; settings: read-out: IC50_Mean
T2 sequence (Q13324 whole entry): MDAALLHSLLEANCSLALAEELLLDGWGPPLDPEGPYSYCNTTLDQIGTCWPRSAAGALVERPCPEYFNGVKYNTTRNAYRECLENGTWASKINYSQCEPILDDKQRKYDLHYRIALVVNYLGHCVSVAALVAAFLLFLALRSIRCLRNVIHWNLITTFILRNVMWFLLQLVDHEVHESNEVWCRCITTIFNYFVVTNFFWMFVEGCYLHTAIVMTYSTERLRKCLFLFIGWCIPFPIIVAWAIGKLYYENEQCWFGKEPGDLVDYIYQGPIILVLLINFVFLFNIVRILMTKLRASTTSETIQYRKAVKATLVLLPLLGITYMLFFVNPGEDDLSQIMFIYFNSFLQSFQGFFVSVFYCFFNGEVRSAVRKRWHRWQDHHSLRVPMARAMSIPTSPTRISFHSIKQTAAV
T2 sequence (P24387 whole entry): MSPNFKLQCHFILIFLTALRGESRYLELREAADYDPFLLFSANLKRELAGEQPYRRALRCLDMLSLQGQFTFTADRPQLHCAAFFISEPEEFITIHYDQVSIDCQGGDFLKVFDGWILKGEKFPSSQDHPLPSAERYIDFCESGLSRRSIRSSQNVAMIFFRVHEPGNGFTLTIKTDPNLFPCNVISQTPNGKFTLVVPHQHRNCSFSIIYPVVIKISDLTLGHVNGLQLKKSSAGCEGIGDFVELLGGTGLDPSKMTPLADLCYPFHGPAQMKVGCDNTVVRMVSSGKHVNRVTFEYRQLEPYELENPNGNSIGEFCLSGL

[4] = target: T2, Corticotropin-releasing factor receptor 2/Corticotropin-releasing factor-binding protein; assay: activators of CRF receptor 2 with binding protein – uHTS hits, confirmation (AID 602473); format: functional; settings: read-out: EC50_Mean
[5] = alpha-synuclein stem-loop luciferase translation blockers – H4 neuroglioma cells, luminescence, confirmation (AID 1988); format: functional, cell-based
[6] = Luminescence Cell-Based Dose Response HTS to Identify Inhibitors of 5'UTR Stem-Loop Driven Prion Protein mRNA Translation in H4 Neuroglioblastoma Cells. [Related pubchem assays: 1827 (Project Summary), 1813 (Primary HTS)]; format: functional
[7] = luciferase reporter signal suppression in cells – H4 neuroglioma cells, luminescence, dose response (AID 1990); format: functional, cell-based
[8] = target: T3, Protein RecA (Mycobacterium tuberculosis, UniProt P9WHJ3); assay: Fluorescence Cell-Free Homogeneous Dose Retest to Identify Inhibitors of RecA-Intein Splicing Activity. [Related pubchem assays (depositor defined):AID2097, AID2223, AID489010, AID492950]; format: functional
T3 sequence (P9WHJ3 whole entry): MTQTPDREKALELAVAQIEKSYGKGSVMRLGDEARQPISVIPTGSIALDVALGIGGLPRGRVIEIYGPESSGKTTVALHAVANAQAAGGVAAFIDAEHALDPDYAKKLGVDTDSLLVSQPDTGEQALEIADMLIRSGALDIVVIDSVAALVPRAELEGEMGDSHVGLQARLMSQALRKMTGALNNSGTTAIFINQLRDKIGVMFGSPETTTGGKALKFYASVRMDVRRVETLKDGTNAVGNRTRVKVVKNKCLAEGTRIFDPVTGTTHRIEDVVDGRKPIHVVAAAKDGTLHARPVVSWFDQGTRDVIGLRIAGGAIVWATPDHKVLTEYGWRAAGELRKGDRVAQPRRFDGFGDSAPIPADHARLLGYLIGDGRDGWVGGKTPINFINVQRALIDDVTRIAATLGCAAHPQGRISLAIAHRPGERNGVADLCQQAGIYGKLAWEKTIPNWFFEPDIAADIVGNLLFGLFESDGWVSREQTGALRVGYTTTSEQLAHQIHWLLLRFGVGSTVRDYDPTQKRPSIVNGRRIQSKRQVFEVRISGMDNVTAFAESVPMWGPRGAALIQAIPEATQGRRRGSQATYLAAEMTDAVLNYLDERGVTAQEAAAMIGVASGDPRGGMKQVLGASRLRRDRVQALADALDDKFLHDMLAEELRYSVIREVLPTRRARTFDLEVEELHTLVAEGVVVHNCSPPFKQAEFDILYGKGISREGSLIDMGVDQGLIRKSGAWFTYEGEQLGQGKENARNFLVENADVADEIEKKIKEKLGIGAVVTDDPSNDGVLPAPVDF

[9] = target: T4, Replicative DNA helicase DnaB (Mycobacterium tuberculosis, UniProt P9WMR3); assay: DnaB intein splicing inhibitors, dose response, biochemical, cell-free fluorescence (AID 449749); format: functional
T4 sequence (P9WMR3 whole entry): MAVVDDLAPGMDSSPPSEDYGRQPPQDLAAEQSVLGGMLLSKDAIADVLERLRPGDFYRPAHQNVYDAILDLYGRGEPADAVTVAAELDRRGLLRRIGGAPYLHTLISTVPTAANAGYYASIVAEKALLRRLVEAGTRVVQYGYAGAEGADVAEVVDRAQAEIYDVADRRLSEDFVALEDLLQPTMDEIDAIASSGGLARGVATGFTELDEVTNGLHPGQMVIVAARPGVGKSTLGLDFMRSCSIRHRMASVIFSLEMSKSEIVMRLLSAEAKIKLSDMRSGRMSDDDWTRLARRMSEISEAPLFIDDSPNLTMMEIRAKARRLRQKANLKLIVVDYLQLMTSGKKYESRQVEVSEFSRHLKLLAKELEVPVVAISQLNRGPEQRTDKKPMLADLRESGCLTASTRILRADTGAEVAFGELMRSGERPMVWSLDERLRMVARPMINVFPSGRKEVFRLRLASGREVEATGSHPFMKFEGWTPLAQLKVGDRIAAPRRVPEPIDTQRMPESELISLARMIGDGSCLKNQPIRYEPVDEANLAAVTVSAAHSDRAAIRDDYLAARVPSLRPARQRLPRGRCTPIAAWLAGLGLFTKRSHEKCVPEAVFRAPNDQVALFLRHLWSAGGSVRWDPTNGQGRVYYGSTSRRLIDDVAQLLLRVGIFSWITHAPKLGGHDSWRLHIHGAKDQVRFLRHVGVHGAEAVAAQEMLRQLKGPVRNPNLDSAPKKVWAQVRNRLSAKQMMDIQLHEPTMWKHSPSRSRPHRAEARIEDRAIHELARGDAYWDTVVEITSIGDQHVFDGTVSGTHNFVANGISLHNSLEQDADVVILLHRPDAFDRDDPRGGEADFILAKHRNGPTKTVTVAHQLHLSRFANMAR

| Structure (SMILES) | IC50 [1] | IC50 [3] | EC50 [4] | other results |
| --- | --- | --- | --- | --- |
| C[C@](N)(CCP(=O)(O)O)C(=O)O | > 100 µM (inactive) | – | – | – |
| Cc1cc(Nc2ccccc2)n(-c2ccc(C(=O)O)cc2)n1 | – | – | – | AC50 [2]: 1.41 µM (active) |
| Cc1cccc(NC2=NC(=O)/C(=C/c3cccn3C)S2)c1C | > 100 µM (inactive) | – | – | – |
| COC(=O)c1cc(C#N)c(N(C)Cc2ccccc2)nc1C | – | 5.03 µM (active) | > 53 µM (inactive) | – |
| O=C1C(=C2SCCCS2)CC/C1=C\c1ccc(F)cc1 | – | – | – | EC50 [5]: 0.116 µM (active); EC50 [6]: 4.36 µM (active); EC50 [7]: 0.238 µM (active) |
| CC(C)OC(=O)CSc1nnnn1-c1ccc2c(c1)OCCO2 | > 100 µM (inactive) | – | – | – |
| COC(=O)C(F)(F)Sc1c(C)[nH]c2ccccc12 | – | 15.4 µM (active) | > 53 µM (inactive) | – |
| COC(=O)[C@H](Cc1ccccc1)NC(=O)N1CCN(c2ccc(F)cc2)CC1 | – | – | – | AC50 [2]: > 100 µM (inactive) |
| O=C(Cc1c(O)c2ccccc2[nH]c1=O)OC1CCCCC1 | – | > 47.1 µM (inactive) | > 53 µM (inactive) | – |
| CC1CCc2c(C(=O)Nc3ccccn3)csc2C1 (centres undefined) | – | > 47.1 µM (inactive) | > 53 µM (inactive) | – |
| COc1ccc(N(C)S(=O)(=O)c2cccc(C(=O)Nc3nc(C)cs3)c2)cc1 | – | – | – | AC50 [2]: 1.2 µM (active) |
| CN1CCN(CC(=O)Nc2cc(N(C)C)nc3ccccc23)CC1 | – | > 47.1 µM (inactive) | > 53 µM (inactive) | – |
| O=C1N=C(NO)S/C1=C\c1ccccc1-n1cccn1 | – | – | – | AC50 [2]: 4.82 µM (active) |
| O=C(NCc1ccc(F)cc1)C(=O)NCC1OCCN1C(=O)c1ccc(Cl)cc1 (centres undefined) | – | > 47.1 µM (inactive) | > 53 µM (inactive) | – |
| O=C(CSc1nc2ccccc2c(=O)n1Cc1ccco1)N1CCCC1 | – | – | – | EC50 [5]: > 120 µM (not active); EC50 [6]: > 120 µM (not active); EC50 [7]: 20.3 µM (active) |
| C=CCN(c1ccccc1)S(=O)(=O)c1cccc(C(=O)OCC(=O)NCCOC)c1 | – | > 47.1 µM (inactive) | > 53 µM (inactive) | – |
| O=C(Nc1ccc(S(=O)(=O)NC2CCCCC2)cc1)c1ccco1 | – | – | – | EC50 [5]: > 120 µM (not active); EC50 [6]: > 120 µM (not active); EC50 [7]: 26.7 µM (active) |
| COc1cc2c(cc1OC)C(C)N(C(=O)c1cc(C)on1)CC2 (centres undefined) | – | – | – | EC50 [5]: 0.415 µM (active); EC50 [6]: 3.88 µM (active); EC50 [7]: 4.12 µM (active) |
| O=C(Nc1ccc(OC(=O)N2CCCC2)cc1)N1CCOCC1 | > 100 µM (inactive) | – | – | – |
| Cc1nc2nc(CSc3nc4ccccc4s3)cc(O)n2n1 | > 100 µM (inactive) | – | – | – |
| COc1ccccc1NC(=O)CN1C(=O)CCS(=O)(=O)c2ccccc21 | – | > 47.1 µM (inactive) | > 53 µM (inactive) | – |
| CCn1c(CCC(=O)Nc2nc3c(s2)CCCC3)nc2cc(S(=O)(=O)N(C)C)ccc21 | > 100 µM (inactive) | – | – | – |
| Cc1c(OCC(=O)Nc2cccnc2)ccc2c3c(c(=O)oc12)CCC3 | – | – | – | EC50 [8]: 2.26 µM (active); EC50 [5]: > 120 µM (not active); AC50 [9]: 2.65 µM (active); EC50 [6]: > 120 µM (not active) |
| CC(C)NC(=O)COC(=O)c1ccc(S(=O)(=O)N2CCCC2)cc1 | – | – | – | EC50 [5]: > 120 µM (not active); EC50 [6]: > 120 µM (not active); EC50 [7]: > 120 µM (not active) |
| CCCOc1cc(C)c(S(=O)(=O)NCc2cccs2)cc1C | > 100 µM (inactive) | – | – | – |
| Cc1ccc(-c2ccc(SCC(=O)NCC3CCCO3)nn2)cc1 (centres undefined) | – | > 47.1 µM (inactive) | > 53 µM (inactive) | – |
| O=Nc1nc2ncccn2c1-c1ccccc1 | – | > 47.1 µM (inactive) | > 53 µM (inactive) | – |
| Clc1ccc(N2CCN(c3ccnc(Cl)n3)CC2)cc1 | 26.3 µM (active) | – | – | – |
| COc1ccc(Cc2c(-c3ccco3)nc3c(C)cc(Br)cn23)c(C)c1 | > 100 µM (inactive) | – | – | – |
| Cc1ccc(S(=O)(=O)NC2=NCN(C3CCN(Cc4ccccc4)CC3)CN2)cc1 | – | > 47.1 µM (inactive) | > 53 µM (inactive) | – |

Source: ChEMBL document CHEMBL1201862, “PubChem BioAssay data set” (2004)
